Experiments:
Experiment in all cases: viability relative to DMSO control (fraction); higher = less drug effect (more viable cells)
Settings in all cases: 48 h
Rigosertib = compound: COc1cc(OC)c(/C=C/S(=O)(=O)Cc2ccc(OC)c(NCC(=O)O)c2)c(OC)c1 [Rigosertib]
How it was run: (§1)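 Cells were incubated for 48 h at 37 °C and 5% CO2 in RPMI-1640 with penicillin/streptomycin, L-glutamine and human serum, at 4 × 10^4 cells per well in 384-well plates with compounds pre-plated at five concentrations, one well each. These were primary mononuclear tumour cells, fresh or cryopreserved, Ficoll-isolated from blood or bone marrow or obtained from processed lymph node. Viability values are CellTiter-Glo luminescence relative to the median of 16 inner DMSO wells.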

Pacritinib = compound: C1=N/C2=N/c3ccc(OCCN4CCCC4)c(c3)COC/C=C/COCc3cccc(c3)C(=C1)N2 [Pacritinib]
How it was run: as §1

Bortezomib = compound: CC(C)C[C@H](NC(=O)[C@H](Cc1ccccc1)NC(=O)c1cnccn1)B(O)O [Bortezomib]
How it was run: as §1

Obatoclax mesylate = compound: COC1=CC(c2cc3ccccc3[nH]2)=N/C1=C\c1[nH]c(C)cc1C [Obatoclax mesylate]
How it was run: as §1

Nilotinib = compound: Cc1cn(-c2cc(NC(=O)c3ccc(C)c(Nc4nccc(-c5cccnc5)n4)c3)cc(C(F)(F)F)c2)cn1 [Nilotinib]
How it was run: as §1

Pentostatin = compound: OC[C@H]1O[C@@H](n2cnc3c2N=CNC[C@H]3O)C[C@@H]1O [Pentostatin]
How it was run: as §1

BEZ235 = compound: Cn1c(=O)n(-c2ccc(C(C)(C)C#N)cc2)c2c3cc(-c4cnc5ccccc5c4)ccc3ncc21 [BEZ235]
How it was run: as §1

Nelarabine = compound: COc1nc(N)nc2c1ncn2[C@@H]1O[C@H](CO)[C@@H](O)[C@@H]1O [Nelarabine]
How it was run: as §1

Vincristine = compound: CC[C@]1(O)C[C@H]2CN(CCc3c([nH]c4ccccc34)[C@@](C(=O)OC)(c3cc4c(cc3OC)N(C=O)[C@H]3[C@@](O)(C(=O)OC)[C@H](OC(C)=O)[C@]5(CC)C=CCN6CC[C@]43[C@@H]65)C2)C1 [Vincristine]
How it was run: as §1

8-Azaguanin = compound: Nc1nc2n[nH]nc2c(=O)[nH]1 [8-Azaguanin]
How it was run: as §1

Pralatrexate = compound: C#CCC(Cc1cnc2nc(N)nc(N)c2n1)c1ccc(C(=O)N[C@@H](CCC(=O)O)C(=O)O)cc1 [Pralatrexate]
How it was run: as §1

AG-221 (Enasidinib) = compound: CC(C)(O)CNc1nc(Nc2ccnc(C(F)(F)F)c2)nc(-c2cccc(C(F)(F)F)n2)n1 [AG-221 (Enasidinib)]
How it was run: as §1

TMP269 = compound: O=C(NCC1(c2nc(-c3ccccc3)cs2)CCOCC1)c1cccc(-c2noc(C(F)(F)F)n2)c1 [TMP269]
How it was run: as §1

Imatinib = compound: Cc1ccc(NC(=O)c2ccc(CN3CCN(C)CC3)cc2)cc1Nc1nccc(-c2cccnc2)n1 [Imatinib]
How it was run: as §1

Vorinostat = compound: O=C(CCCCCCC(=O)Nc1ccccc1)NO [Vorinostat]
How it was run: as §1

Test System: primary AML patient cells (S021)
- viability (Rigosertib; 0.008 µM): 0.928
- viability (Rigosertib; 0.04 µM): 1.02
- viability (Rigosertib; 0.2 µM): 0.927
- viability (Rigosertib; 1 µM): 0.996
- viability (Rigosertib; 5 µM): 0.857
- viability (Pacritinib; 0.024 µM): 1.07
- viability (Pacritinib; 0.12 µM): 1
- viability (Pacritinib; 0.6 µM): 0.774
- viability (Pacritinib; 3 µM): 0.459
- viability (Pacritinib; 15 µM): 0.131
- viability (Bortezomib; 0.008 µM): 0.977
- viability (Bortezomib; 0.04 µM): 0.963
- viability (Bortezomib; 0.2 µM): 0.956
- viability (Bortezomib; 1 µM): 0.979
- viability (Bortezomib; 5 µM): 0.923
- viability (Obatoclax mesylate; 0.024 µM): 1.03
- viability (Obatoclax mesylate; 0.12 µM): 0.979
- viability (Obatoclax mesylate; 0.6 µM): 0.852
- viability (Obatoclax mesylate; 3 µM): 0.578
- viability (Obatoclax mesylate; 15 µM): 0.156
- viability (Nilotinib; 0.016 µM): 1.15
- viability (Nilotinib; 0.08 µM): 1.11
- viability (Nilotinib; 0.4 µM): 1.03
- viability (Nilotinib; 2 µM): 1.14
- viability (Nilotinib; 10 µM): 1.1
- viability (Pentostatin; 0.03 µM): 1.01
- viability (Pentostatin; 0.15 µM): 1.03
- viability (Pentostatin; 0.75 µM): 1.05
- viability (Pentostatin; 3.75 µM): 0.951
- viability (Pentostatin; 18.76 µM): 0.608
- viability (BEZ235; 0.024 µM): 0.806
- viability (BEZ235; 0.12 µM): 0.919
- viability (BEZ235; 0.6 µM): 0.839
- viability (BEZ235; 3 µM): 0.943
- viability (BEZ235; 15 µM): 0.51
- viability (Nelarabine; 0.024 µM): 0.992
- viability (Nelarabine; 0.12 µM): 0.971
- viability (Nelarabine; 0.6 µM): 0.992
- viability (Nelarabine; 3 µM): 0.872
- viability (Nelarabine; 15 µM): 0.899
- viability (Vincristine; 0.016 µM): 1.02
- viability (Vincristine; 0.08 µM): 0.693
- viability (Vincristine; 0.4 µM): 0.339
- viability (Vincristine; 2 µM): 0.289
- viability (Vincristine; 10 µM): 0.275
- viability (8-Azaguanin; 0.032 µM): 1.14
- viability (8-Azaguanin; 0.16 µM): 0.877
- viability (8-Azaguanin; 0.8 µM): 0.897
- viability (8-Azaguanin; 4 µM): 0.736
- viability (8-Azaguanin; 20 µM): 0.53
- viability (Pralatrexate; 0.024 µM): 0.99
- viability (Pralatrexate; 0.12 µM): 0.982
- viability (Pralatrexate; 0.6 µM): 0.99
- viability (Pralatrexate; 3 µM): 0.989
- viability (Pralatrexate; 15 µM): 0.965
- viability (AG-221 (Enasidinib); 0.024 µM): 0.872
- viability (AG-221 (Enasidinib); 0.12 µM): 0.856
- viability (AG-221 (Enasidinib); 0.6 µM): 0.895
- viability (AG-221 (Enasidinib); 3 µM): 0.734
- viability (AG-221 (Enasidinib); 15 µM): 0.683
- viability (TMP269; 0.024 µM): 0.983
- viability (TMP269; 0.12 µM): 0.926
- viability (TMP269; 0.6 µM): 0.93
- viability (TMP269; 3 µM): 0.874
- viability (TMP269; 15 µM): 0.834
- viability (Imatinib; 0.016 µM): 0.979
- viability (Imatinib; 0.4 µM): 0.95
- viability (Imatinib; 2 µM): 0.99
- viability (Imatinib; 10 µM): 0.722
- viability (Vorinostat; 0.016 µM): 0.918
- viability (Vorinostat; 0.08 µM): 0.859
- viability (Vorinostat; 0.4 µM): 0.626
- viability (Vorinostat; 2 µM): 0.404
- viability (Vorinostat; 10 µM): 0.304

Test System: primary CLL patient cells (S031)
- viability (Rigosertib; 0.008 µM): 1.01
- viability (Rigosertib; 0.04 µM): 0.997
- viability (Rigosertib; 0.2 µM): 1.03
- viability (Rigosertib; 1 µM): 0.945
- viability (Rigosertib; 5 µM): 0.297
- viability (Pacritinib; 0.024 µM): 0.865
- viability (Pacritinib; 0.12 µM): 0.78
- viability (Pacritinib; 0.6 µM): 0.483
- viability (Pacritinib; 3 µM): 0.198
- viability (Pacritinib; 15 µM): 0.0138
- viability (Bortezomib; 0.008 µM): 0.967
- viability (Bortezomib; 0.04 µM): 1.03
- viability (Bortezomib; 0.2 µM): 0.938
- viability (Bortezomib; 1 µM): 1.04
- viability (Bortezomib; 5 µM): 0.94
- viability (Obatoclax mesylate; 0.024 µM): 0.88
- viability (Obatoclax mesylate; 0.12 µM): 0.863
- viability (Obatoclax mesylate; 0.6 µM): 0.738
- viability (Obatoclax mesylate; 3 µM): 0.384
- viability (Obatoclax mesylate; 15 µM): 0.0738
- viability (Nilotinib; 0.016 µM): 1.09
- viability (Nilotinib; 0.08 µM): 1.12
- viability (Nilotinib; 0.4 µM): 1.16
- viability (Nilotinib; 2 µM): 1.13
- viability (Nilotinib; 10 µM): 1.09
- viability (Pentostatin; 0.03 µM): 0.885
- viability (Pentostatin; 0.15 µM): 0.779
- viability (Pentostatin; 0.75 µM): 0.828
- viability (Pentostatin; 3.75 µM): 0.705
- viability (Pentostatin; 18.76 µM): 0.739
- viability (BEZ235; 0.024 µM): 0.859
- viability (BEZ235; 0.12 µM): 0.812
- viability (BEZ235; 0.6 µM): 0.727
- viability (BEZ235; 3 µM): 0.562
- viability (BEZ235; 15 µM): 0.132
- viability (Nelarabine; 0.024 µM): 1.04
- viability (Nelarabine; 0.12 µM): 0.991
- viability (Nelarabine; 0.6 µM): 0.932
- viability (Nelarabine; 3 µM): 0.73
- viability (Nelarabine; 15 µM): 0.484
- viability (Vincristine; 0.016 µM): 0.363
- viability (Vincristine; 0.08 µM): 0.246
- viability (Vincristine; 0.4 µM): 0.153
- viability (Vincristine; 2 µM): 0.131
- viability (Vincristine; 10 µM): 0.0855
- viability (8-Azaguanin; 0.032 µM): 0.92
- viability (8-Azaguanin; 0.16 µM): 0.878
- viability (8-Azaguanin; 0.8 µM): 0.794
- viability (8-Azaguanin; 4 µM): 0.483
- viability (8-Azaguanin; 20 µM): 0.267
- viability (Pralatrexate; 0.024 µM): 1.1
- viability (Pralatrexate; 0.12 µM): 1.08
- viability (Pralatrexate; 0.6 µM): 1.04
- viability (Pralatrexate; 3 µM): 1.03
- viability (Pralatrexate; 15 µM): 1.01
- viability (AG-221 (Enasidinib); 0.024 µM): 0.738
- viability (AG-221 (Enasidinib); 0.12 µM): 0.754
- viability (AG-221 (Enasidinib); 0.6 µM): 0.847
- viability (AG-221 (Enasidinib); 3 µM): 0.799
- viability (AG-221 (Enasidinib); 15 µM): 0.786
- viability (TMP269; 0.024 µM): 0.914
- viability (TMP269; 0.12 µM): 0.904
- viability (TMP269; 0.6 µM): 0.989
- viability (TMP269; 3 µM): 0.939
- viability (TMP269; 15 µM): 0.992
- viability (Vorinostat; 0.016 µM): 0.963
- viability (Vorinostat; 0.08 µM): 0.995
- viability (Vorinostat; 0.4 µM): 0.879
- viability (Vorinostat; 2 µM): 0.197
- viability (Vorinostat; 10 µM): 0.0346

Reference: the supplement of paper PMC10733146
